Earlier results on 52 compounds are cited in PMC7520419 (The AAPS Journal, 2020).

Where a name gives a salt, the structure may show the parent alone.
Wherever Observed AUC(0-inf) Fasted is given: test concentration or dose not given here.
Wherever Observed AUC(0-inf) Fed is given: test concentration or dose not given here.
Wherever Observed Cmax Fasted is given: test concentration or dose not given here.
Wherever Observed Cmax Fed is given: test concentration or dose not given here.

The conditions of the first series: Model 2; fasted; ref published clinical data (Table I); cited from earlier work.
`C#C[C@]1(O)CC[C@H]2[C@@H]3CCC4=Cc5oncc5C[C@]4(C)[C@H]3CC[C@@]21C` [Danazol]: the “Observed AUC(0-inf) Fasted” value is 231 ng·h/mL and the “Observed Cmax Fasted” value is 37 ng/mL.

Still in this series, the particulars now being: Model 2; fed; ref published clinical data (Table I); cited from earlier work.
For the compound `C#C[C@]1(O)CC[C@H]2[C@@H]3CCC4=Cc5oncc5C[C@]4(C)[C@H]3CC[C@@]21C` [Danazol], the “Observed AUC(0-inf) Fed” value is 668 ng·h/mL and the “Observed Cmax Fed” value was 101 ng/mL.

Still in this series, the particulars now being: active metabolite measured; fed vs fasted; compiled by literature search; cited from earlier work.
On to `COC(=O)[C@H](c1ccccc1Cl)N1CCc2sccc2C1` [Clopidogrel bisulfate], for which the “Food Effect” value is “None (none if no significant change in AUC and Cmax with food)”.

Still in this series, the particulars now being: clinically observed PK change (AUC, Cmax) fed vs fasted; compiled by literature search; cited from earlier work.
Take `CC(C)C[C@H]1C(=O)N2CCC[C@H]2[C@]2(O)O[C@](NC(=O)[C@@H]3C=C4c5cccc6[nH]c(Br)c(c56)C[C@H]4N(C)C3)(C(C)C)C(=O)N12` [Bromocriptine]: the “Food Effect” value was “None (none if no significant change in AUC and Cmax with food)”.
As for `CN[C@H]1CC[C@@H](c2ccc(Cl)c(Cl)c2)c2ccccc21` [Sertraline], the “Food Effect” value was “None (none if no significant change in AUC and Cmax with food)”.
Consider `O=C(O[C@H]1C[C@H]2CC[C@@H](C1)[N+]21CCCC1)C(O)(c1ccccc1)c1ccccc1` [Trospium Chloride], for which the “Food Effect” value is given as “Negative (negative if ratio fasted > fed)”.
Take `CC(=O)N(CCC(CCN1CCCCC1)(C(N)=O)c1ccccc1Cl)C(C)C` (centres unmarked) [Bidisomide]: the “Food Effect” value is listed as “Negative (negative if ratio fasted > fed)”.
`Nc1ccn([C@H]2CC[C@@H](CO)O2)c(=O)n1` [Zalcitabine]: the “Food Effect” value is “None (none if no significant change in AUC and Cmax with food)”.
Take `Cc1onc(-c2ccccc2)c1-c1ccc(S(N)(=O)=O)cc1` [Valdecoxib]: the “Food Effect” value was “None (none if no significant change in AUC and Cmax with food)”.
In the case of `C#Cc1cccc(Nc2ncnc3cc(OCCOC)c(OCCOC)cc23)c1` [Erlotinib], the “Food Effect” value is given as “Positive (positive if the ratio of fed > fasted)”.
Turning to `N[C@@H](CC(=O)N1CCn2c(nnc2C(F)(F)F)C1)Cc1cc(F)c(F)cc1F` [Sitagliptin], the “Food Effect” value was “None (none if no significant change in AUC and Cmax with food)”.
As to `CNC(=O)c1cc(Oc2ccc(NC(=O)Nc3ccc(Cl)c(C(F)(F)F)c3)c(F)c2)ccn1` [Regorafenib], the “Food Effect” value is “Positive (positive if the ratio of fed > fasted)”.
Take `CC(C)(C)c1nc(-c2cccc(NS(=O)(=O)c3c(F)cccc3F)c2F)c(-c2ccnc(N)n2)s1` [Tafinlar]: the “Food Effect” value is recorded as “Negative (negative if ratio fasted > fed)”.
Consider `C[C@@H](Oc1cc(-c2cnn(C3CCNCC3)c2)cnc1N)c1c(Cl)ccc(F)c1Cl` [Crizotinib], for which the “Food Effect” value was “None (none if no significant change in AUC and Cmax with food)”.
For the compound `CC1COc2c(N3CCN(C)CC3)c(F)cc3c(=O)c(C(=O)O)cn1c23` (centres unmarked) [Ofloxacin], the “Food Effect” value was “None (Absorption delayed but extent not substantially affected) (none if no significant change in AUC and Cmax with food)”.
Consider `CN(C)C(=N)N=C(N)N` [Metformin], for which the “Food Effect” value is “None (none if no significant change in AUC and Cmax with food)”.
`N#CC[C@H](C1CCCC1)n1cc(-c2ncnc3[nH]ccc23)cn1` [Ruxolitinib]: the “Food Effect” value was “None (none if no significant change in AUC and Cmax with food)”.
On to `CC(C)(C)NC(=O)[C@@H]1C[C@@H]2CCCC[C@@H]2CN1C[C@@H](O)[C@H](Cc1ccccc1)NC(=O)[C@H](CC(N)=O)NC(=O)c1ccc2ccccc2n1` [Saquinavir], for which the “Food Effect” value is on record as “Positive (positive if the ratio of fed > fasted)”.
As for `O=C1Cc2cc(CCN3CCN(c4nsc5ccccc45)CC3)c(Cl)cc2N1` [Ziprasidone hydrochloride], the “Food Effect” value is “Positive (positive if the ratio of fed > fasted)”.
In the case of `CCCCC1=NC2(CCCC2)C(=O)N1Cc1ccc(-c2ccccc2-c2nnn[nH]2)cc1` [Irbesartan], the “Food Effect” value is “None (none if no significant change in AUC and Cmax with food)”.
Take `CCCCCOC(=O)Nc1nc(=O)n([C@@H]2O[C@H](C)[C@@H](O)[C@H]2O)cc1F` [Capecitabine]: the “Food Effect” value is recorded as “Negative (negative if ratio fasted > fed)”.
On to `CC(C)(C(=O)O)c1ccc(C(O)CCCN2CCC(C(O)(c3ccccc3)c3ccccc3)CC2)cc1` (centres unmarked) [Fexofenadine], for which the “Food Effect” value was “Negative (negative if ratio fasted > fed)”.
As for `CN(C)CCc1c[nH]c2ccc(C[C@H]3COC(=O)N3)cc12` [Zolmitriptan], the “Food Effect” value is “None (none if no significant change in AUC and Cmax with food)”.
As to `Cc1c(OCC(F)(F)F)ccnc1C[S+]([O-])c1nc2ccccc2[nH]1` (centres unmarked) [Lansoprazole], the “Food Effect” value was “None (none if no significant change in AUC and Cmax with food)”.
`CCc1nn(CCCN2CCN(c3cccc(Cl)c3)CC2)c(=O)n1CCOc1ccccc1` [Nefazodone hydrochloride]: the “Food Effect” value is given as “Negative (negative if ratio fasted > fed)”.
Regarding `CC1=C(/C=C/C(C)=C/C=C/C(C)=C\C(=O)O)C(C)(C)CCC1` [Isotretinoin], the “Food Effect” value is reported as “Positive (positive if the ratio of fed > fasted)”.
In the case of `CC(C)Cn1cnc2c(N)nc3ccccc3c21` [Imiquimod], the “Food Effect” value is “None (none if no significant change in AUC and Cmax with food)”.
`CCOC(=O)C1=C[C@@H](OC(CC)CC)[C@H](NC(C)=O)[C@@H](N)C1` [Oseltamavir]: the “Food Effect” value is “None (none if no significant change in AUC and Cmax with food)”.
On to `CCCCC(C)(O)C/C=C/[C@H]1[C@H](O)CC(=O)[C@@H]1CCCCCCC(=O)OC` (mixture of isomers) [Misoprostol], for which the “Food Effect” value was “None (none if no significant change in AUC and Cmax with food)”.
`CCOc1ccccc1OCCN[C@H](C)Cc1ccc(OC)c(S(N)(=O)=O)c1` [Tamsulosin hydrochloride]: the “Food Effect” value was “Negative (negative if ratio fasted > fed)”.
For the compound `CS(=O)(=O)CCNCc1ccc(-c2ccc3ncnc(Nc4ccc(OCc5cccc(F)c5)c(Cl)c4)c3c2)o1` [Lapatinib], the “Food Effect” value is listed as “Positive (positive if the ratio of fed > fasted)”.
Take `O=C1Nc2ccc(Cl)cc2[C@@](C#CC2CC2)(C(F)(F)F)O1` [Efavirenz]: the “Food Effect” value is “Positive (positive if the ratio of fed > fasted)”.
In the case of `C#C[C@]1(O)CC[C@H]2[C@@H]3CCc4cc(O)ccc4[C@H]3CC[C@@]21C` [Ethinyl estradiol], the “Food Effect” value is “None (none if no significant change in AUC and Cmax with food)”.
As for `C=CC1=C(C(=O)O)N2C(=O)[C@@H](NC(=O)/C(=N\O)c3csc(N)n3)[C@H]2SC1` [Cefdinir], the “Food Effect” value is “None (none if no significant change in AUC and Cmax with food)”.
In the case of `COc1cc(C)c(/C=C/C(C)=C/C=C/C(C)=C/C(=O)O)c(C)c1C` [Acitretin], the “Food Effect” value is “Positive (positive if the ratio of fed > fasted)”.
Regarding `COc1cc2nc(N(C)CCCNC(=O)C3CCCO3)nc(N)c2cc1OC` (centres unmarked) [Alfuzosine], the “Food Effect” value is listed as “Positive (positive if the ratio of fed > fasted)”.
For `NS(=O)(=O)c1cc2c(cc1Cl)NCNS2(=O)=O` [Hydrochlorothiazide], the “Food Effect” value was “None (none if no significant change in AUC and Cmax with food)”.
`CC1(C)O[C@@H]2[C@@H](CO[C@@]3(COS(N)(=O)=O)OC(C)(C)O[C@@H]23)O1` [Topiramate]: the “Food Effect” value was “None (none if no significant change in AUC and Cmax with food)”.
In the case of `Nc1nc(NC2CC2)c2ncn([C@H]3C=C[C@@H](CO)C3)c2n1` [Abacavir sulfate], the “Food Effect” value was “None (none if no significant change in AUC and Cmax with food)”.
In the case of `Cc1c(C)c2c(c(C)c1O)CCC(C)(COc1ccc(CC3SC(=O)NC3=O)cc1)O2` (centres unmarked) [Troglitazone], the “Food Effect” value is reported as “Positive (positive if the ratio of fed > fasted)”.
Regarding `CO/N=C(\C(=O)N[C@@H]1C(=O)N2C(C(=O)OCOC(=O)C(C)(C)C)=C(/C=C\c3scnc3C)CS[C@H]12)c1csc(N)n1` [Cefditoren pivoxil], the “Food Effect” value was “Positive (positive if the ratio of fed > fasted)”.
Regarding `Cc1ccc(O)c([C@H](CCN(C(C)C)C(C)C)c2ccccc2)c1` [Tolterodine tartrate], the “Food Effect” value is “None (none if no significant change in AUC and Cmax with food)”.
In the case of `CCCS(=O)(=O)Nc1ccc(F)c(C(=O)c2c[nH]c3ncc(-c4ccc(Cl)cc4)cc23)c1F` [Vemurafenib], the “Food Effect” value is “Positive (positive if the ratio of fed > fasted)”.
Regarding `O=c1[nH]cnc2c1ncn2[C@H]1CC[C@@H](CO)O1` [Didanosine], the “Food Effect” value is “Negative (negative if ratio fasted > fed)”.
For `CC(C)OC(=O)C(C)(C)Oc1ccc(C(=O)c2ccc(Cl)cc2)cc1` [Fenofibrate], the “Food Effect” value is on record as “Positive (positive if the ratio of fed > fasted)”.
Turning to `O=C1C(O)=C([C@H]2CC[C@H](c3ccc(Cl)cc3)CC2)C(=O)c2ccccc21` [Atovaquone], the “Food Effect” value is reported as “Positive (positive if the ratio of fed > fasted)”.
Consider `CSc1nc2cc(Cl)c(Oc3cccc(Cl)c3Cl)cc2[nH]1` [Triclabendazole], for which the “Food Effect” value is recorded as “Positive (positive if the ratio of fed > fasted)”.
As for `COc1cccc(CCc2ccccc2OCC(CN(C)C)OC(=O)CCC(=O)O)c1` (centres unmarked) [Sarpogrelate], the “Food Effect” value is on record as “Negative (negative if ratio fasted > fed)”.
`CNC(=O)c1ccccc1Sc1ccc2c(/C=C/c3ccccn3)n[nH]c2c1` [Axitinib]: the “Food Effect” value is “None (none if no significant change in AUC and Cmax with food)”.
As to `O=C1CN=C(c2ccccn2)c2cc(Br)ccc2N1` [Bromazepam], the “Food Effect” value is reported as “Negative (negative if ratio fasted > fed)”.
Turning to `CCCCc1oc2ccccc2c1C(=O)c1cc(I)c(OCCN(CC)CC)c(I)c1` [Amiodarone], the “Food Effect” value is on record as “Positive (positive if the ratio of fed > fasted)”.
Regarding `CCCCCCCNC(=O)Oc1ccc2c(c1)[C@]1(C)CCN(C)[C@@H]1N2C` [Eptastigmine], the “Food Effect” value is “Negative (negative if ratio fasted > fed)”.

The same series, now with this note: prodrug measured; fed vs fasted; compiled by literature search; cited from earlier work.
As for `COC(=O)[C@H](c1ccccc1Cl)N1CCc2sccc2C1` [Clopidogrel bisulfate], the “Food Effect” value was “Positive (positive if the ratio of fed > fasted)”.

Still in this series, the particulars now being: ref drug label; cited from earlier work.
On to `NS(=O)(=O)c1cc(C(=O)O)c(NCc2ccco2)cc1Cl` [Furosemide], for which the “food effect (FE) direction” value is “negative FE”.
